Experimental data reported in patent publication US20260022142A1, “MACROCYCLIC IMMUNOMODULATORS” (Bristol-Myers Squibb Company, priority 2022, published 2026).
Numbered stars: 1 amine (or outer) side, 2 acyl side, 3 side chain; on linkers, the order of the positions; unused ones are H or OH. Bridge positions count the residues as written; N and C are the ends. Square brackets hold non-standard residues; d marks the D form. Peptide text beside a SMILES is read from it. * marks the point of attachment. ξ: configuration not given here. Phe(3-CF3) = N[C@@H](Cc1cccc(C(F)(F)F)c1)C(=O)O; Ala(morpholin-4-yl) = N[C@@H](CN1CCOCC1)C(=O)O; Phe(4-COOH) = N[C@@H](Cc1ccc(C(=O)O)cc1)C(=O)O; Bip = N[C@@H](Cc1ccc(-c2ccccc2)cc1)C(=O)O; Phe(3-Me) = Cc1cccc(C[C@H](N)C(=O)O)c1; γGlu = O=C(O)[C@H](CCC(=O)[*:2])N[*:1]; NH(CH2)12COOH = O=C(O)CCCCCCCCCCCCN*; Val(3-OH) = CC(C)(O)[C@H](N)C(=O)O; X6 = O=C(Cc1ccc(CN[*:1])cc1)[*:2]; hArg = N=C(N)NCCCC[C@H](N)C(=O)O; 4Pal = N[C@@H](Cc1ccncc1)C(=O)O; Cha = N[C@@H](CC1CCCCC1)C(=O)O; Cit = NC(=O)NCCC[C@H](N)C(=O)O; Thr(3ξ) = CC(O)[C@H](N)C(=O)O; 12Ado = NCCCCCCCCCCCC(=O)O; Carboxymethyl = O=C(O)C*; NMeA = CN[C@@H](C)C(=O)O; Orn = NCCC[C@H](N)C(=O)O; Aun = NCCCCCCCCCCC(=O)O; Dab = NCC[C@H](N)C(=O)O; Dap = NC[C@H](N)C(=O)O; AEEA = NCCOCCOCC(=O)O

target: T1, PD-1/PD-L1 interaction (PE-labeled human PD-L1-Ig binding to Jurkat cell line over-expressing human PD-1) (Homo sapiens, UniProt Q15116); experiment: Jurkat-PD-1 Cell Binding High-Content Screening Assay (CBA); format: cell-based; conditions: Jurkat cell line over-expressing human PD-1; PE-labeled PD-L1-Ig 20 nM final; read-out: Jurkat hPD1-PDL1 IC50
T1 construct: expressed in transfected cells; host or cells: Jurkat
T1 sequence (Q15116 25-288): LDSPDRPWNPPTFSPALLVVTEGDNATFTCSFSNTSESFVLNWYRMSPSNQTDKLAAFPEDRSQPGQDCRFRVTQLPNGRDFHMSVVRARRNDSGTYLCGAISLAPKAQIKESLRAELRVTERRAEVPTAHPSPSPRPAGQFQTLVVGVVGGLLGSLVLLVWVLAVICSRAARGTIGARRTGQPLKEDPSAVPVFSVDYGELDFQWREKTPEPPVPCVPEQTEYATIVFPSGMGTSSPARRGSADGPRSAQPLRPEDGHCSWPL
How it was run: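 Jurkat cells over-expressing human PD-1 (8×10^3 per well, DMEM/10% FCS) preincubated with compound 2 h at 37° C, then PE-labeled human PD-L1-Ig (20 nM final) added for 1 h. Cells fixed with paraformaldehyde, Hoechst-stained, and bound fluorescence quantified by high-content imaging.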

Structure (SMILES) | IC50
CC(C)C[C@H]1NC(=O)[C@H](CCCN)NC(=O)[C@H](C(C)C)NC(=O)[C@H](Cc2ccc(-c3ccccc3)cc2)NC(=O)[C@H](C(C)C)NC(=O)[C@H](Cc2c[nH]c3ccccc23)NC(=O)[C@H](CC(=O)O)NC(=O)[C@H](Cc2ccc(OCC(=O)O)cc2)NC(=O)[C@H](CCCCNC(=N)N)NC(=O)CSC[C@@H](C(=O)NCC(=O)NCCOCCOCC(=O)N[C@@H](CCCN)C(=O)NCCCCCCCCCCC(=O)O)NC(=O)[C@H](CCCCN)NC(=O)[C@H](C(C)C)NC(=O)[C@H](CC2CCCCC2)NC(=O)[C@H](CCN)NC1=O [Compound 3199] ({CH2CO}-[hArg]Y(Carboxymethyl)DWV[Bip]V[Orn][dL][Dab][Cha]VKCG[AEEA][Orn][Aun]-OH; thioether N-14) | 5.5 nM
Cc1cccc(C[C@@H]2NC(=O)[C@H](CC(=O)O)NC(=O)[C@H](Cc3ccc(OCC(=O)O)cc3)NC(=O)[C@H](CN)NC(=O)CSC[C@@H](C(=O)N[C@@H](CCN)C(=O)NCCCCCCCCCCC(=O)O)NC(=O)[C@H](CCCN)NC(=O)[C@H](C(C)C)NC(=O)[C@H](CC3CCCCC3)NC(=O)[C@H](CCN)NC(=O)[C@@H](CC(C)C)NC(=O)[C@H](CCCN)NC(=O)[C@H](Cc3ccc(OCC(=O)O)cc3)NC(=O)[C@H](Cc3ccc(-c4ccccc4)cc3)NC(=O)[C@H](C(C)C)NC2=O)c1 [Compound 2842] ({CH2CO}-[Dap]Y(Carboxymethyl)D[Phe(3-Me)]V[Bip]Y(Carboxymethyl)[Orn][dL][Dab][Cha]V[Orn]C[Dab][Aun]-OH; thioether N-14) | 11.1 nM
CC(C)C[C@H]1NC(=O)[C@H](CCCN)NC(=O)[C@H](C(C)C)NC(=O)[C@H](Cc2ccc(-c3ccccc3)cc2)NC(=O)[C@H](C(C)C)NC(=O)[C@H](Cc2c[nH]c3ccccc23)NC(=O)[C@H](CC(=O)O)NC(=O)[C@H](Cc2ccc(OCC(=O)O)cc2)NC(=O)[C@H](CCCNC(=N)N)NC(=O)CSC[C@@H](C(=O)NCC(=O)NCCOCCOCC(=O)N[C@@H](CCCN)C(=O)NCCCCCCCCCCCC(=O)O)NC(=O)[C@H](CN)NC(=O)[C@H](C(C)C)NC(=O)[C@H](CC2CCCCC2)NC(=O)[C@H](CCN)NC1=O [Compound 3172] ({CH2CO}-RY(Carboxymethyl)DWV[Bip]V[Orn][dL][Dab][Cha]V[Dap]CG[AEEA][Orn][12Ado]-OH; thioether N-14) | 10.7 nM
CC(C)C[C@H]1NC(=O)[C@H](CCCN)NC(=O)[C@H](Cc2ccc(C(=O)O)cc2)NC(=O)[C@H](Cc2ccc(-c3ccccc3)cc2)NC(=O)[C@H](Cc2ccc(C(=O)O)cc2)NC(=O)[C@H](Cc2cccc(C(F)(F)F)c2)NC(=O)[C@H](CC(=O)O)NC(=O)[C@H](Cc2ccc(OCC(=O)O)cc2)NC(=O)[C@H](CN2CCOCC2)NC(=O)CSC[C@@H](C(=O)N[C@@H](CCN)C(=O)NCCOCCOCC(=O)N[C@@H](CCC(=O)NCCOCCOCC(=O)NCCCCCCCCCCCCC(=O)O)C(=O)O)NC(=O)[C@H](CO)NC(=O)[C@H](C(C)(C)O)NC(=O)[C@H](CC2CCCCC2)NC(=O)[C@H](CCN)NC1=O [Compound 2940] ({CH2CO}-[Ala(morpholin-4-yl)]Y(Carboxymethyl)D[Phe(3-CF3)][Phe(4-COOH)][Bip][Phe(4-COOH)][Orn][dL][Dab][Cha][Val(3-OH)]SC[Dab][AEEA][γGlu][AEEA]-{NH(CH2)12COOH}; thioether N-14) | 14.3 nM
Cc1cccc(C[C@@H]2NC(=O)[C@H](CC(=O)O)NC(=O)[C@H](Cc3ccncc3)NC(=O)[C@H](Cc3ccc(OCC(=O)O)cc3)NC(=O)CSC[C@@H](C(=O)NCCOCCOCC(=O)N[C@@H](CCCCN)C(=O)NCCCCCCCCCCC(=O)O)NC(=O)[C@H]([C@@H](C)O)NC(=O)[C@H](C(C)C)NC(=O)[C@H](CC3CCCCC3)NC(=O)[C@H](CCN)NC(=O)[C@@H](CC(C)C)NC(=O)[C@H](CCCN)NC(=O)[C@H](C(C)C)NC(=O)[C@H](Cc3ccc(-c4ccccc4)cc3)NC(=O)[C@H](C(C)C)NC2=O)c1 [Compound 1172] ({CH2CO}-Y(Carboxymethyl)[4Pal]D[Phe(3-Me)]V[Bip]V[Orn][dL][Dab][Cha]VTC[AEEA]K[Aun]-OH; thioether N-14) | 25 nM

Second part, the compound after the results:

IC50 | Structure (SMILES)
46 nM | Cc1cccc(C[C@@H]2NC(=O)[C@H](CC(=O)O)NC(=O)[C@H](Cc3ccc(OCC(=O)O)cc3)NC(=O)[C@H](CN)NC(=O)CSC[C@@H](C(=O)N[C@@H](CCCCN)C(=O)NCc3ccc(CC(=O)NCCCCCCCCCCC(=O)O)cc3)NC(=O)[C@H](CN)NC(=O)[C@H](C(C)C)NC(=O)[C@H](CC3CCCCC3)NC(=O)[C@H](CCN)NC(=O)[C@@H](CC(C)C)NC(=O)[C@H](CCCN)NC(=O)[C@H](C(C)C)NC(=O)[C@H](Cc3ccc(-c4ccccc4)cc3)NC(=O)[C@H](C(C)C)NC2=O)c1 [Compound 2012] ({CH2CO}-[Dap]Y(Carboxymethyl)D[Phe(3-Me)]V[Bip]V[Orn][dL][Dab][Cha]V[Dap]CK[X6][Aun]-OH; thioether N-14)
68.5 nM | Cc1cccc(C[C@@H]2NC(=O)[C@H](CC(=O)O)NC(=O)[C@H](Cc3ccc(OCC(=O)O)cc3)NC(=O)[C@H](C(C)O)NC(=O)CSC[C@@H](C(=O)N(C)[C@@H](C)C(=O)NCCOCCOCC(=O)NCCCCCCCCCCC(=O)O)NC(=O)[C@H](CCCN)NC(=O)[C@H](C(C)C)NC(=O)[C@H](CC3CCCCC3)NC(=O)[C@H](CCN)NC(=O)[C@@H](CC(C)C)NC(=O)[C@H](CCN)NC(=O)[C@H](C(C)C)NC(=O)[C@H](Cc3ccc(-c4ccccc4)cc3)NC(=O)[C@H](C(C)C)NC2=O)c1 (stereo partly drawn) [Compound 3320] ({CH2CO}-[Thr(3ξ)]Y(Carboxymethyl)D[Phe(3-Me)]V[Bip]V[Dab][dL][Dab][Cha]V[Orn]C[NMeA][AEEA][Aun]-OH; thioether N-14)
6 nM | Cc1cccc(C[C@@H]2NC(=O)[C@H](CC(=O)O)NC(=O)[C@H](Cc3ccc(OCC(=O)O)cc3)NC(=O)[C@H](CN)NC(=O)CSC[C@@H](C(=O)N[C@@H](C)C(=O)N[C@@H](CC(=O)O)C(=O)NCC(=O)NCCCCCCCCCCC(=O)O)NC(=O)[C@H]([C@@H](C)O)NC(=O)[C@H](C(C)C)NC(=O)[C@H](CC3CCCCC3)NC(=O)[C@H](CCN)NC(=O)[C@@H](CC(C)C)NC(=O)[C@H](CCCN)NC(=O)[C@H](CCCNC(N)=O)NC(=O)[C@H](Cc3ccc(-c4ccccc4)cc3)NC(=O)[C@H](C(C)C)NC2=O)c1 [Compound 1002] ({CH2CO}-[Dap]Y(Carboxymethyl)D[Phe(3-Me)]V[Bip][Cit][Orn][dL][Dab][Cha]VTCADG[Aun]-OH; thioether N-14)
16.4 nM | Cc1cccc(C[C@@H]2NC(=O)[C@H](CC(=O)O)NC(=O)[C@H](Cc3ccc(OCC(=O)O)cc3)NC(=O)[C@H](CCCNC(=N)N)NC(=O)CSC[C@@H](C(=O)N[C@@H](CCN)C(=O)NCCCCCCCCCCC(=O)O)NC(=O)[C@H]([C@@H](C)O)NC(=O)[C@H](C(C)C)NC(=O)[C@H](CC3CCCCC3)NC(=O)[C@H](CCN)NC(=O)[C@@H](CC(C)C)NC(=O)[C@H](CCCN)NC(=O)[C@H](CCCNC(N)=O)NC(=O)[C@H](Cc3ccc(-c4ccccc4)cc3)NC(=O)[C@H](Cc3ccc(OCC(=O)O)cc3)NC2=O)c1 [Compound 2836] ({CH2CO}-RY(Carboxymethyl)D[Phe(3-Me)]Y(Carboxymethyl)[Bip][Cit][Orn][dL][Dab][Cha]VTC[Dab][Aun]-OH; thioether N-14)
